In ChEMBL document CHEMBL1681745, “Synthesis and photophysical properties of new SNARF derivatives as dual emission pH sensors” (Bioorg Med Chem Lett, 2011) one finds pKa and Drug uptake data, which are given here for three compounds.

Each structure is given as a SMILES string.

Data set [1] can be described thus: Dissociation constant, pKa of the compound by UV spectrum analysis. It is filed as physicochemical.
For data set [2], the system named is V79. The experiment in a line: Cellular uptake in chinese hamster V79 cells at 10 uM after 1 hr by flow cytometry. The following applies: v79, 1 h. It is filed as ADME, cell-based, Cricetulus griseus. Background: In flow cytometry, cells or beads pass a laser one at a time.

For orientation: pKa means the negative logarithm of the acid dissociation constant. In data set [1], `CN(C)c1ccc2c(c1)Oc1c(ccc3cc(O)ccc13)C21OC(=O)c2c(F)c(F)c(F)c(F)c21` (stereo unspecified) displayed a pKa of 7.38. For the same compound, the Drug uptake result in data set [2] is listed as “Active”.
On to `C[N+](C)=c1ccc2c(-c3ccccc3C(=O)O)c3ccc4cc(O)ccc4c3oc-2c1`, for which, in data set [1], the pKa was found to be 7.62. Moreover, the Drug uptake result in data set [2] is “Active”.
With `CN(C)c1ccc2c(c1)Oc1c(ccc3cc(O)ccc13)C21OC(=O)c2c(Cl)c(Cl)c(Cl)c(Cl)c21` (stereo unspecified), in data set [1], the pKa worked out at 7.9. In data set [2], the Drug uptake entry is “Active”.
